# Test results: BindingDB's records for doi:10.1046/j.1471-4159.1998.70052147.x (F. Hoffmann-La Roche, 1998)
# Structures can show the parent of a compound that is named as a salt.
# Target: Glutamate receptor ionotropic, NMDA 1 (Rattus norvegicus, UniProt P35439)
row,Compound,Ki
1,OC(CN1CCC(Cc2ccc(F)cc2)CC1)c1ccc(Cl)cc1 (stereo unspecified),300 nM
2,C[C@@H](CN1CCC(Cc2ccccc2)CC1)[C@@H](O)c1ccc(O)cc1,6 nM
3,"C[C@@H]([C@@H](O)c1ccc(O)cc1)N1CCC(O)(c2ccccc2)CC1 [1-[(1S,2S)-2-Hydroxy-2-(4-hydroxy-phenyl)-1-methyl-ethyl]-4-phenyl-piperidin-4-ol]",8 nM
4,"NCCCNCCCCNCCCN [N,N''-bis(3-azanylpropyl)butane-1,4-diamine;hydrochloride]",2000 nM
5,COc1cc2c(cc1O)C(CCc1ccc(Cl)cc1)N(C)CC2 (stereo unspecified) [Ro 04-5595],20 nM
6,NCCCCNCCCN [spermidine],> 10000 nM
